The subject of the experiment is HepaRG. The experiment in a line: LDH release cytotoxicity, % of total lysis control; higher = more cytotoxic. The conditions noted are these: 48 h. The essentials: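 The CytoTox-ONE kit was used to read LDH in 50 µL spent medium as resorufin fluorescence on a Tecan Safire, with 0.1% Triton X added to total lysis wells. Beforehand, single-lot HepaRG cells on collagen I-coated 96-well plates had been exposed in duplicate for 48 h to eight-point half-log series (top 100 µM) in serum-free induction medium containing 0.5% DMSO. Percent cytotoxicity was normalized against on-plate vehicle and total lysis controls and averaged over duplicates.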
On the technique in general: LDH in the medium is a marker of cell lysis.

The results in this text go back to the supplement of paper PMC7840683.

Structures can show the parent of a compound that is named as a salt. ± gives the standard deviation of the averaged measurements.

In the case of `CC12C=CC(=O)C=C1CCC1C3CC(O)C(O)(C(=O)CO)C3(C)CC(O)C12F` (configuration not stated) [Triamcinolone], the LDH release cytotoxicity was -1.85 ± 0.34% (0.03162 µM); -0.492 ± 0.35% (0.1 µM); -1.39 ± 0.53% (0.3162278 µM); -1.34 ± 0.22% (1 µM); -0.853 ± 0.06% (3.16228 µM); -0.509 ± 0.53% (10 µM). Besides, the LDH release cytotoxicity runs as follows: (31.6228 µM) -0.546 ± 0.2%; (100 µM) 2.9 ± 0.79%.

For the compound `CCOP(=S)(OCC)SCSP(=S)(OCC)OCC` [Ethion], the LDH release cytotoxicity was -0.671 ± 0.69% (0.03162 µM); -1.31 ± 0.3% (0.1 µM); -1.54 ± 0.12% (0.3162278 µM); -1.6 ± 0.47% (1 µM); -1.07 ± 0.078% (3.16228 µM); -1.06 ± 0.23% (10 µM). Further, the LDH release cytotoxicity runs as follows: (31.6228 µM) -2.53 ± 0.069%; (100 µM) -0.532 ± 0.36%.

For `Cc1cc(CCN2CCN(c3nsc4ccccc34)CC2)cc2c1NC(=O)CC2(C)C`, the LDH release cytotoxicity by setting is: (0.03162 µM) -0.898 ± 0.3%; (0.1 µM) -1.13 ± 1.4%; (0.3162278 µM) -0.946 ± 0.34%; (1 µM) -0.828 ± 0.57%; (3.16228 µM) -0.925 ± 0.38%; (10 µM) -1.14 ± 0.57%. Further, the LDH release cytotoxicity is -0.566 ± 0.6% (31.6228 µM) and -0.469 ± 0.49% (100 µM).

Regarding `O=[N+]([O-])c1cc(C(F)(F)F)c(Cl)c([N+](=O)[O-])c1Nc1ncc(C(F)(F)F)cc1Cl` [Fluazinam], the LDH release cytotoxicity by setting is: (0.03162 µM) -1.32 ± 0.49%; (0.1 µM) -1.4 ± 0.42%; (0.3162278 µM) -1.08 ± 0.19%; (1 µM) -1.53 ± 1%; (3.16228 µM) -1.12 ± 0.27%; (10 µM) 0.179 ± 0.78%. In addition, the LDH release cytotoxicity is, setting by setting: (31.6228 µM) 9.87 ± 2.4%; (100 µM) 55.8 ± 2.7%.

As to `CCc1cc(C2=C(C(=O)O)N(c3ccccc3C(F)(F)F)S(=O)(=O)c3ccccc32)cc2c1OCO2` [Fandosentan potassium salt], the LDH release cytotoxicity (0.03162 µM) was -0.538 ± 1.3%; the LDH release cytotoxicity (0.1 µM) was -0.00891 ± 0.054%; the LDH release cytotoxicity (0.3162278 µM) is -0.491 ± 0.64%; the LDH release cytotoxicity (1 µM) is -0.769 ± 1.1%; the LDH release cytotoxicity (3.16228 µM) was -0.525 ± 0.42%; the LDH release cytotoxicity (10 µM) was -0.587 ± 0.47%. Moreover, the LDH release cytotoxicity runs as follows: (31.6228 µM) 2.28 ± 1.1%; (100 µM) 48.4 ± 0.95%.

Consider `COC=C(C(=O)OC)c1ccccc1COc1cccc(C(F)(F)F)n1` [Picoxystrobin], for which the LDH release cytotoxicity was -4.13 ± 1% (0.03162 µM); -3.11 ± 1.4% (0.1 µM); -4.04 ± 0.58% (0.3162278 µM); -4.28 ± 1.9% (1 µM); -5.14 ± 0.47% (3.16228 µM); 20 ± 2.6% (10 µM). Also, the LDH release cytotoxicity is, setting by setting: (31.6228 µM) 37 ± 6.9%; (100 µM) 60 ± 9.4%.

In the case of `CCCN(CCC)c1c([N+](=O)[O-])cc(C(F)(F)F)c(N)c1[N+](=O)[O-]` [Prodiamine], the LDH release cytotoxicity by setting is: (0.03162 µM) -2.33 ± 0.34%; (0.1 µM) -1.51 ± 1.1%; (0.3162278 µM) -2.72 ± 0.29%; (1 µM) -3.4 ± 1.3%; (3.16228 µM) 0.15 ± 1.8%; (10 µM) -1.16 ± 0.42%. Moreover, the LDH release cytotoxicity is -0.459 ± 0.57% (31.6228 µM) and 8.35 ± 0.43% (100 µM).

Turning to `Cc1ccc([N+](=O)[O-])cc1N` [5-Nitro-o-toluidine], the LDH release cytotoxicity (0.03162 µM) is -0.782 ± 1%; the LDH release cytotoxicity (0.1 µM) was -1.02 ± 0.28%; the LDH release cytotoxicity (0.3162278 µM) was -1.84 ± 0.91%; the LDH release cytotoxicity (1 µM) was -1.647 ± 0.013%; the LDH release cytotoxicity (3.16228 µM) was -1.55 ± 0.25%; the LDH release cytotoxicity (10 µM) was -1.24 ± 0.39%. Further, the LDH release cytotoxicity is -0.792 ± 0.78% (31.6228 µM) and -0.343 ± 0.81% (100 µM).

Take `Nc1ccc(C(=O)O)cc1` [4-Aminobenzoic acid]: the LDH release cytotoxicity (0.031623 µM) was -2.09 ± 0.27%; the LDH release cytotoxicity (0.1 µM) is -1.2 ± 2.3%; the LDH release cytotoxicity (0.316228 µM) is -0.757 ± 1.4%; the LDH release cytotoxicity (1 µM) is -2.3 ± 1.1%; the LDH release cytotoxicity (3.16228 µM) was -2.47 ± 0.28%; the LDH release cytotoxicity (10 µM) was -1.41 ± 0.43%. For the same compound, the LDH release cytotoxicity (31.6228 µM) is -0.777 ± 0.61% and the LDH release cytotoxicity (100 µM) is 1.93 ± 0.47%.

Take `COP(=O)(OC)C(O)C(Cl)(Cl)Cl` (configuration not stated) [Trichlorfon]: the LDH release cytotoxicity reads like this: (0.03162 µM) 0.0437 ± 1.6%; (0.1 µM) -1.39 ± 0.081%; (0.3162278 µM) -0.758 ± 0.2%; (1 µM) -1.43 ± 0.39%; (3.16228 µM) 19.7 ± 0.21%; (10 µM) 73.1 ± 2.5%. Moreover, the LDH release cytotoxicity (31.6228 µM) was found to be 76.8 ± 2.2% and the LDH release cytotoxicity (100 µM) was 76.7 ± 1.5%.

For the compound `ClCCOCCCl` [Bis(2-chloroethyl) ether], the LDH release cytotoxicity runs as follows: (0.03162 µM) -2.26 ± 0.94%; (0.1 µM) -1.98 ± 0.48%; (0.3162278 µM) -2.69 ± 0.3%; (1 µM) -2.69 ± 0.29%; (3.16228 µM) -1.96 ± 0.21%; (10 µM) -2.12 ± 0.39%. Besides, the LDH release cytotoxicity was -2.25 ± 0.35% (31.6228 µM) and -0.123 ± 0.23% (100 µM).

Regarding `O=C(O)C(F)(F)C(F)(F)C(F)(F)C(F)(F)C(F)(F)F` [Perfluorohexanoic acid], the LDH release cytotoxicity is -0.915 ± 0.22% (0.03162 µM); -0.436 ± 0.56% (0.1 µM); -1.48 ± 0.11% (0.3162278 µM); -1.3 ± 0.12% (1 µM); -1.58 ± 0.4% (3.16228 µM); -0.342 ± 0.24% (10 µM). Also, the LDH release cytotoxicity (31.6228 µM) is -0.769 ± 0.29% and the LDH release cytotoxicity (100 µM) is 0.349 ± 0.23%.

`CCNc1nc(Cl)nc(NC(C)C)n1` [Atrazine]: the LDH release cytotoxicity reads like this: (0.03162 µM) -1.43 ± 0.65%; (0.1 µM) -1.36 ± 0.23%; (0.3162278 µM) -1.63 ± 1.4%; (1 µM) -2.15 ± 1.4%; (3.16228 µM) -1.57 ± 0.28%; (10 µM) -1.86 ± 1.1%. Besides, the LDH release cytotoxicity reads like this: (31.6228 µM) -1.38 ± 0.22%; (100 µM) -0.59 ± 0.41%.

As for `C=CCc1ccc(OC)c(OC)c1` [Methyleugenol], the LDH release cytotoxicity reads like this: (0.03162 µM) -1.16 ± 1.3%; (0.1 µM) -0.0217 ± 1.6%; (0.3162278 µM) -0.545 ± 1.1%; (1 µM) -0.949 ± 0.59%; (3.16228 µM) -0.679 ± 0.11%; (10 µM) -0.724 ± 0.15%. Also, the LDH release cytotoxicity (31.6228 µM) is -0.435 ± 0.59% and the LDH release cytotoxicity (100 µM) was determined as 0.911 ± 0.18%.
